Here are results for seven molecules from PubChem BioAssay (NCI).

Test systems include 786-0 renal; A549 NSCLC; CAKI-1 renal; HOP-62 NSCLC; HT29 colon; IGROV1 ovarian; K-562 leukemia; LOX IMVI melanoma; MALME-3M melanoma; MDA-N; NCI-H460 lung; RXF 393 renal; SF-268 CNS; SK-MEL-28 melanoma; SK-OV-3 ovarian; SNB-19 CNS; TK-10 renal; U251 CNS; UACC-257 melanoma; UACC-62 melanoma.
Holding throughout (assay): inhibition of tumour cell growth, NCI panel, 48 h

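Briefly, cells in 96-well plates were exposed to five compound concentrations for 48 h, and endpoints were estimated by linear interpolation. At the TGI there is no net growth.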

For the molecule `CSc1ccc2c(cc1=O)[C@@H](NC(=O)c1ccc([N+](=O)[O-])cc1)CCc1cc(O)c(O)c(O)c1-2`, the TGI with 786-0 renal was 84.1 µM; with A549 NSCLC it was 77.7 µM; with CAKI-1 renal, 42.6 µM; in the test with HOP-62 NSCLC, 33.4 µM; in the test on HT29 colon, 40.8 µM; in the test on IGROV1 ovarian it was greater than 100 µM. Further, the TGI with K-562 leukemia is greater than 100 µM; in the test with LOX IMVI melanoma, greater than 100 µM; in the test on MALME-3M melanoma, greater than 100 µM; in the test with MDA-N, 67.4 µM; in the test with NCI-H460 lung, greater than 100 µM; in the test with RXF 393 renal it was greater than 100 µM. In addition, the TGI with SF-268 CNS, in the test with SK-MEL-28 melanoma, in the test with SK-OV-3 ovarian, with SNB-19 CNS, in the test with TK-10 renal and with U251 CNS was greater than 100 µM in each case. In addition, the TGI with UACC-257 melanoma and with UACC-62 melanoma was greater than 100 µM each time.

As to `Cc1nc2cccc([N+](=O)[O-])c2n1CCCN(C)C`, the TGI in the test on 786-0 renal, in the test with A549 NSCLC, with CAKI-1 renal, in the test on HOP-62 NSCLC, in the test on HT29 colon and with IGROV1 ovarian was greater than 100 µM throughout. For the same molecule, the TGI in the test with K-562 leukemia, in the test with LOX IMVI melanoma, in the test on MALME-3M melanoma, in the test with MDA-N, in the test with NCI-H460 lung and in the test on RXF 393 renal was greater than 100 µM in each case. In addition, the TGI with SF-268 CNS, with SK-MEL-28 melanoma, in the test on SK-OV-3 ovarian, with SNB-19 CNS, in the test on TK-10 renal and in the test on U251 CNS was greater than 100 µM in each case. The TGI in the test with UACC-257 melanoma and with UACC-62 melanoma was greater than 100 µM in each case.

For the molecule `O=S(=O)(/N=C(\NO)Nc1ccc(Cl)cc1)C1CC=C(c2ccon2)S1` (stereo not given), the TGI in the test on 786-0 renal is greater than 100 µM; with A549 NSCLC, greater than 100 µM; with CAKI-1 renal, greater than 100 µM; with HOP-62 NSCLC, greater than 100 µM; in the test on HT29 colon it was greater than 100 µM; in the test with IGROV1 ovarian, greater than 72.3 µM. Further, the TGI in the test on K-562 leukemia is greater than 100 µM; with LOX IMVI melanoma, greater than 100 µM; in the test on MALME-3M melanoma it was 43.2 µM; in the test with MDA-N, greater than 100 µM; in the test on NCI-H460 lung it was greater than 65.8 µM; with RXF 393 renal, 87.3 µM. In addition, the TGI in the test on SF-268 CNS is greater than 84.4 µM; with SK-MEL-28 melanoma, greater than 100 µM; in the test on SK-OV-3 ovarian it was greater than 100 µM; with SNB-19 CNS, greater than 100 µM; with TK-10 renal, greater than 100 µM; in the test on U251 CNS, greater than 100 µM. The TGI in the test on UACC-257 melanoma and in the test with UACC-62 melanoma was greater than 100 µM each time.

With `COc1ccc(N(C(=O)NCCO)c2ccccc2)cc1`, the TGI in the test on 786-0 renal, with A549 NSCLC, in the test with CAKI-1 renal, with HOP-62 NSCLC, in the test with HT29 colon and in the test on IGROV1 ovarian was greater than 100 µM throughout. Further, the TGI with K-562 leukemia, with LOX IMVI melanoma, with MALME-3M melanoma, in the test with MDA-N, in the test with NCI-H460 lung and in the test with RXF 393 renal was greater than 100 µM in each case. For the same molecule, the TGI in the test on SF-268 CNS, in the test on SK-MEL-28 melanoma, in the test on SK-OV-3 ovarian, with SNB-19 CNS, in the test with TK-10 renal and in the test with U251 CNS was greater than 100 µM in each case. Also, the TGI in the test on UACC-257 melanoma and in the test with UACC-62 melanoma was greater than 100 µM in each case.

For the molecule `O=[p+]1c2ccccc2[nH]c2ccccc21`, the TGI with 786-0 renal, in the test with A549 NSCLC, in the test with CAKI-1 renal, in the test with HOP-62 NSCLC, in the test with HT29 colon and in the test on IGROV1 ovarian was greater than 100 µM throughout. Further, the TGI in the test with K-562 leukemia, in the test on LOX IMVI melanoma, with MALME-3M melanoma, with MDA-N, in the test with NCI-H460 lung and with RXF 393 renal was greater than 100 µM throughout. Also, the TGI in the test with SF-268 CNS, in the test with SK-MEL-28 melanoma, in the test with SK-OV-3 ovarian, in the test on SNB-19 CNS, in the test on TK-10 renal and in the test on U251 CNS was greater than 100 µM each time. The TGI in the test on UACC-257 melanoma and with UACC-62 melanoma was greater than 100 µM throughout.

As to `Cc1cc(=O)c2ccccc2n1CCCCCCCCCCn1c(C)cc(=O)c2ccccc21`, the TGI in the test with 786-0 renal is 30.4 µM; in the test with A549 NSCLC, 56.2 µM; with CAKI-1 renal it was 36.1 µM; with HOP-62 NSCLC, greater than 100 µM; in the test with HT29 colon it was 29.9 µM; in the test on IGROV1 ovarian, 43.8 µM. The TGI in the test with K-562 leukemia turned out to be 17.9 µM; in the test with LOX IMVI melanoma it was 17.8 µM; in the test with MALME-3M melanoma it was 34.4 µM; with MDA-N, 43.1 µM; in the test with NCI-H460 lung it was 87.4 µM; in the test with RXF 393 renal it was 72.3 µM. Moreover, the TGI is 89.4 µM with SF-268 CNS; 35.1 µM in the test on SK-MEL-28 melanoma; 35.3 µM with SK-OV-3 ovarian; greater than 100 µM with SNB-19 CNS; 30.2 µM with TK-10 renal; 29 µM in the test on U251 CNS. The TGI was 25.2 µM in the test with UACC-257 melanoma and 34.9 µM with UACC-62 melanoma.

As to `C/C(=C1\C(=O)C(c2ccccc2)N(c2ccccc2)C1=O)c1ccc(Cl)cc1` (stereo not given), the TGI with 786-0 renal was 38.6 µM; in the test on A549 NSCLC, 36.5 µM; in the test with CAKI-1 renal, 48.4 µM; in the test with HOP-62 NSCLC it was 84.5 µM; with HT29 colon it was 31.2 µM; in the test with IGROV1 ovarian it was 40.5 µM. For the same molecule, the TGI is greater than 100 µM in the test with K-562 leukemia; 28.5 µM in the test on LOX IMVI melanoma; 37.4 µM in the test on MALME-3M melanoma; 48 µM with MDA-N; greater than 100 µM in the test with NCI-H460 lung; 79.2 µM with RXF 393 renal. Also, the TGI in the test on SF-268 CNS stood at 47 µM; in the test on SK-MEL-28 melanoma, 31.2 µM; with SK-OV-3 ovarian it was 30.8 µM; with SNB-19 CNS it was 32.7 µM; in the test with TK-10 renal it was 52.5 µM; in the test on U251 CNS, 29.4 µM. Also, the TGI in the test on UACC-257 melanoma and in the test on UACC-62 melanoma was 30.8 µM throughout.
